From ChEMBL document CHEMBL4800722, “Data for DCP probe BI 605906” (2021)

How the values were obtained:
[1] = molecular target: AMPK alpha1/beta1/gamma3 (Homo sapiens) (UniProt Q9Y478+Q13131+Q9UGI9); assay: AMPK (A1/B1/G3) Invitrogen Lab (UK) kinase screen (BI); assay type: protein-complex assay; conditions: Compound concentration 1.0 uM
[2] = molecular target: Cyclin-C/Cyclin-dependent kinase 19 (Homo sapiens) (UniProt Q9BWU1+P24863); assay: CDK11/CYCLIN C Invitrogen Lab (UK) kinase screen (BI); assay type: protein-complex assay; conditions: Compound concentration 1.0 uM
[3] = molecular target: cAMP-dependent protein kinase catalytic subunit gamma (Homo sapiens) (UniProt P22612); assay: PRKACG (PRKAC GAM Invitrogen Lab (UK) kinase screen (BI); conditions: Compound concentration 1.0 uM
[4] = molecular target: Serine/threonine-protein kinase TAO1 (Homo sapiens) (UniProt Q7L7X3); assay: TAOK1 Invitrogen Lab (UK) kinase screen (BI); conditions: Compound concentration 1.0 uM
[5] = molecular target: CDK9/Cyclin K (Homo sapiens) (UniProt P50750+O75909); assay: CDK9_CYCLINK Invitrogen Lab (UK) kinase screen (BI); assay type: protein-complex assay; conditions: Compound concentration 1.0 uM
[6] = molecular target: Serine/threonine-protein kinase Nek2 (Homo sapiens) (UniProt P51955); assay: NEK2A DUNDEE kinase screen (BI); conditions: Compound concentration 10.0 uM
[7] = molecular target: Serine/threonine-protein kinase NIM1 (Homo sapiens) (UniProt Q8IY84); conditions: Compound concentration 1.0 uM
[8] = molecular target: Serine/threonine-protein kinase DCLK2 (Homo sapiens) (UniProt Q8N568); conditions: Compound concentration 1.0 uM
[9] = molecular target: Ephrin type-A receptor 1 (Homo sapiens) (UniProt P21709); conditions: Compound concentration 1.0 uM
[10] = molecular target: Ephrin type-B receptor 2 (Homo sapiens) (UniProt P29323); conditions: Compound concentration 1.0 uM
[11] = molecular target: Mitogen-activated protein kinase kinase kinase kinase 4 (Homo sapiens) (UniProt O95819)
[12] = molecular target: Serine/threonine-protein kinase Sgk1 (Homo sapiens) (UniProt O00141); conditions: Compound concentration 1.0 uM
[13] = molecular target: Tyrosine-protein kinase TXK (Homo sapiens) (UniProt P42681); conditions: Compound concentration 1.0 uM
[14] = molecular target: Non-receptor tyrosine-protein kinase TYK2 (Homo sapiens) (UniProt P29597); conditions: Compound concentration 1.0 uM
[15] = molecular target: Serine/threonine-protein kinase 3 (Homo sapiens) (UniProt Q13188); conditions: Compound concentration 10.0 uM

Measured: residual activity

Mitogen-activated protein kinase kinase kinase kinase 4 (Homo sapiens), sequence (O95819 2-1239 limits assumed): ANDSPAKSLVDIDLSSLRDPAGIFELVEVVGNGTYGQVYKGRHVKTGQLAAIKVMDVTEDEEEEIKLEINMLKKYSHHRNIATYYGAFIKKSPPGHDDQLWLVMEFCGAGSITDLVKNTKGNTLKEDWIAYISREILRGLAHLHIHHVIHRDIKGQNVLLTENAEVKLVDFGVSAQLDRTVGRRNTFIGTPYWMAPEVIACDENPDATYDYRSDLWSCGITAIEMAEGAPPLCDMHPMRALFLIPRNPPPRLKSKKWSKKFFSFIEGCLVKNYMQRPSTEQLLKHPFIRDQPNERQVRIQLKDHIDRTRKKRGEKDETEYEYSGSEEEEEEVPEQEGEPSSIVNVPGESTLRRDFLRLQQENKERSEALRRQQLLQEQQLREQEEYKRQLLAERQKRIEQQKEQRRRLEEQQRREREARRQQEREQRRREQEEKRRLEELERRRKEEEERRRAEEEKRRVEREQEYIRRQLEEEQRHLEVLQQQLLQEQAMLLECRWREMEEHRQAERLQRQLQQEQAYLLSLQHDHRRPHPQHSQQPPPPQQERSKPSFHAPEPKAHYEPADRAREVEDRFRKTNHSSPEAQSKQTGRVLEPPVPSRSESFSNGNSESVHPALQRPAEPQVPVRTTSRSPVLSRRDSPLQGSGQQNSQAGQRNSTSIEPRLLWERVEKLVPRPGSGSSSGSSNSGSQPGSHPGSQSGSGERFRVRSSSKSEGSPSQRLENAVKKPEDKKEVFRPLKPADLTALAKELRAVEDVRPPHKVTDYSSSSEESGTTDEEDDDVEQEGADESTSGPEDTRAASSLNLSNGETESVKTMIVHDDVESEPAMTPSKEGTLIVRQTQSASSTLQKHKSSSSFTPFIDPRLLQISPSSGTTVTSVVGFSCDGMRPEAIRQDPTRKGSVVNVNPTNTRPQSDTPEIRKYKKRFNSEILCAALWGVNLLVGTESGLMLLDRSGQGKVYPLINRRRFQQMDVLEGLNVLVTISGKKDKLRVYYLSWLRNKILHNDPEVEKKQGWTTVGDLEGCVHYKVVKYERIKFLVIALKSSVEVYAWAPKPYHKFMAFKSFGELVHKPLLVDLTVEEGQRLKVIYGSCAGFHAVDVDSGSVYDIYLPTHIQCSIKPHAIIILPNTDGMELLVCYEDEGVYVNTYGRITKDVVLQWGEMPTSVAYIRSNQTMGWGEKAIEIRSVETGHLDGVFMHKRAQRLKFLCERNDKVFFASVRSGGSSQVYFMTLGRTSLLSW
Serine/threonine-protein kinase 3 (Homo sapiens), sequence (Q13188 whole entry): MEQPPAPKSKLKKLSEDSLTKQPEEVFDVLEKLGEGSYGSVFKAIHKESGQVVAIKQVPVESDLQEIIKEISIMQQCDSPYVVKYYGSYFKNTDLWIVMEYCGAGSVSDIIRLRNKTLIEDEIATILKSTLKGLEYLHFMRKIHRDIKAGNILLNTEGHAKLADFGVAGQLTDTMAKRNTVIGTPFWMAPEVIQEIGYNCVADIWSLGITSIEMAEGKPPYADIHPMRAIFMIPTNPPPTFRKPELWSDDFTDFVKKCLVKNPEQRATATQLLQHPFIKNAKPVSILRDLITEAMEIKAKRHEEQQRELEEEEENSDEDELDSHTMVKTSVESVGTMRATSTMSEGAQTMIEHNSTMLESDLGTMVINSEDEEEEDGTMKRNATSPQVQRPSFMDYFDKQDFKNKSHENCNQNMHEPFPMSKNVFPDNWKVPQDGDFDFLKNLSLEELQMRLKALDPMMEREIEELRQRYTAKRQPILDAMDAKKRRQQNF
Serine/threonine-protein kinase TAO1 (Homo sapiens), sequence (Q7L7X3 whole entry): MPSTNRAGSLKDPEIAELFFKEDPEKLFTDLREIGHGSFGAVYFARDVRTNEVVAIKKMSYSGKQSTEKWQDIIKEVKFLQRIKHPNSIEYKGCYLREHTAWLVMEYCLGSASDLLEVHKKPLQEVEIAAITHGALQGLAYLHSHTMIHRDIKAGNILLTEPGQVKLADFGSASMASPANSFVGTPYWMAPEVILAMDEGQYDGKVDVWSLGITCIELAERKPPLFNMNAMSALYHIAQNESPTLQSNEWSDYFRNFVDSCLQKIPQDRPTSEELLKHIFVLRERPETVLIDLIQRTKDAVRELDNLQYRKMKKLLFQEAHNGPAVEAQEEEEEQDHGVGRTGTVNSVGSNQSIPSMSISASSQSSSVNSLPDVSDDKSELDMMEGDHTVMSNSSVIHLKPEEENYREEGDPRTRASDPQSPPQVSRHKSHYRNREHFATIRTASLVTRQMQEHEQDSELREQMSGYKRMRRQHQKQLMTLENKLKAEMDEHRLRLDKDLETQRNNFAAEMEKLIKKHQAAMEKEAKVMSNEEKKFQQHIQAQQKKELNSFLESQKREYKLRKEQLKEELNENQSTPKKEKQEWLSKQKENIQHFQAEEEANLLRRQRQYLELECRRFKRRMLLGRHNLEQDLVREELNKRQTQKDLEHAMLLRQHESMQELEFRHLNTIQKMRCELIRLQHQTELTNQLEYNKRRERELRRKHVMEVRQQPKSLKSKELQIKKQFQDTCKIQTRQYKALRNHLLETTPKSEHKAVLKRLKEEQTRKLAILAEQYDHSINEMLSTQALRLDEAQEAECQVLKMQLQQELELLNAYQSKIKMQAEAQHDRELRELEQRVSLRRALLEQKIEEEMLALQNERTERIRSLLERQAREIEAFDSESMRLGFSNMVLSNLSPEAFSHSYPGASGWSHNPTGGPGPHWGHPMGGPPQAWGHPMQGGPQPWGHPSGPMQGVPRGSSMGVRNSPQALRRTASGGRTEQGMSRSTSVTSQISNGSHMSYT
Ephrin type-B receptor 2 (Homo sapiens), sequence (P29323 whole entry): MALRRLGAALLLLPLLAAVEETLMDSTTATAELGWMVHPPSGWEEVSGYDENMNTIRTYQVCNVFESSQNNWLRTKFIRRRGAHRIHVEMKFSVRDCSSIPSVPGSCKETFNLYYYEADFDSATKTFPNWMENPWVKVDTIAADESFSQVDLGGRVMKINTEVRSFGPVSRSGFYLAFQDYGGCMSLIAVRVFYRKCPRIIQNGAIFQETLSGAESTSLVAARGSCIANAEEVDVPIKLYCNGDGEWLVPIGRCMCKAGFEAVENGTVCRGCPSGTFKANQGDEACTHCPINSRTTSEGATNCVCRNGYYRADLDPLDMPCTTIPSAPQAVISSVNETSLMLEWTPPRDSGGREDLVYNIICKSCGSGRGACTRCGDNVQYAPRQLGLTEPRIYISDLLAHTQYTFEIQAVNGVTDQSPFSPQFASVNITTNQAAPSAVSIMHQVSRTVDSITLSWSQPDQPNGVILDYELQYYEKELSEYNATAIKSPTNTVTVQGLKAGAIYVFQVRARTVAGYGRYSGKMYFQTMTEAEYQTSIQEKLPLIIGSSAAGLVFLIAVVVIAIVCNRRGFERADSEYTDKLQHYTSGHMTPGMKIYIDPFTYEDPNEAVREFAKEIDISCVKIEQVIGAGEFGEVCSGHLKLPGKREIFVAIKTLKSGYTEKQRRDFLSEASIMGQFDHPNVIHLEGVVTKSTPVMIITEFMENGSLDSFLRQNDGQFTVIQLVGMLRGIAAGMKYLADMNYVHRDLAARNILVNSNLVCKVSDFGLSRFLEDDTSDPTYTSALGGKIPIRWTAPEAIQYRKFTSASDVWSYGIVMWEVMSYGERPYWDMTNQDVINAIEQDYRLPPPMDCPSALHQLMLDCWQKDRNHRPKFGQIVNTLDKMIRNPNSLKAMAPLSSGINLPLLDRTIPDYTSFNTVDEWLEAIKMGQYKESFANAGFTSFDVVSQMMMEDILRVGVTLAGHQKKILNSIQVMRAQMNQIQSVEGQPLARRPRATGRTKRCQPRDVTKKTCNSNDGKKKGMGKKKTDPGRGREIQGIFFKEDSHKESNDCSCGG
Serine/threonine-protein kinase Sgk1 (Homo sapiens), sequence (O00141 whole entry): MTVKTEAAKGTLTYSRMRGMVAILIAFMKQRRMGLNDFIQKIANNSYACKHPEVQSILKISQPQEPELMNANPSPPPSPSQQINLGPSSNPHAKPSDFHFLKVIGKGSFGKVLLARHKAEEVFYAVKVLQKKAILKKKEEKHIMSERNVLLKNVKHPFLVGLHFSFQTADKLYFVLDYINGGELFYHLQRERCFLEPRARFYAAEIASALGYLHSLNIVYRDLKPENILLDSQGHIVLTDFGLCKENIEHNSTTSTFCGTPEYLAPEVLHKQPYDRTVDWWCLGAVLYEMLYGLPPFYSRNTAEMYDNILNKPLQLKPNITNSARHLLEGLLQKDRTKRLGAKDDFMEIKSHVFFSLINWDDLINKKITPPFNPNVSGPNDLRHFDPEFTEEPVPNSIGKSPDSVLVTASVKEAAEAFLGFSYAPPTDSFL
Serine/threonine-protein kinase DCLK2 (Homo sapiens), sequence (Q8N568 whole entry): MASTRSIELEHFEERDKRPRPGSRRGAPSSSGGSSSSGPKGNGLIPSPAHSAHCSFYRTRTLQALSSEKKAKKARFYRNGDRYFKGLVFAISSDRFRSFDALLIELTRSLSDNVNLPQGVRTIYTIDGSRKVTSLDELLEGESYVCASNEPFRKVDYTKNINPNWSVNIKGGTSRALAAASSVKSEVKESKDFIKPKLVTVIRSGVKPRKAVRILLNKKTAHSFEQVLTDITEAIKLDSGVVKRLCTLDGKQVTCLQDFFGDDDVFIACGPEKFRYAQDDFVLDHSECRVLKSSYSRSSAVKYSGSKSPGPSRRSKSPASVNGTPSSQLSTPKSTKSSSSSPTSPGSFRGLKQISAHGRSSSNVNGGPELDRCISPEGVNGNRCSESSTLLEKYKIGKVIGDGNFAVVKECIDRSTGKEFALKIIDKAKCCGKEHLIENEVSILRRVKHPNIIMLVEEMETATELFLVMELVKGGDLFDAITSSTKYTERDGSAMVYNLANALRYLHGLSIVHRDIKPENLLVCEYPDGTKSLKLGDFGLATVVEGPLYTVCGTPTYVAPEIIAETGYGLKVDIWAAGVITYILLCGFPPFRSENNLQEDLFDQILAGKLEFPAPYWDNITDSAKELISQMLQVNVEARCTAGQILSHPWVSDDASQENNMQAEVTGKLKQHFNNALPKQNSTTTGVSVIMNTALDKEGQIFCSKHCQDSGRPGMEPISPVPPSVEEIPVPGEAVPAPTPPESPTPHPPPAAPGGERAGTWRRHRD

CCC(F)(F)c1cc(N2CCC(S(C)(=O)=O)CC2)nc2sc(C(N)=O)c(N)c12 [BI-605906]
inactive: [1] 84% | [2] 83% | [3] 103% | [4] 88% | [5] 88% | [6] 74.8% | [7] 93% | [8] 101% | [9] 82% | [10] 89% | [11]; Compound concentration 1.0 uM 95% | [11]; Compound concentration 10.0 uM 89% | [12] 97% | [13] 93% | [14] 93% | [15] 91%
